# Measurements published in article PMC3507948, “Origin and Evolution of Retinoid Isomerization Machinery in Vertebrate Visual Cycle: Hint from Jawless Vertebrates” (PLoS ONE, 2012).
# Tests used:
# Assay type in all cases: cell-based
# Lamprey LRATb = molecular target: T1, Lamprey LRATb (Petromyzon marinus, UniProt A0AAJ7TIF3); assay: retinol esterification in HEK293-F cells, HPLC, retinyl esters as % of total retinoids; conditions: with 50 µM A922500 to block endogenous DGAT1; all-trans retinol added to cells
# T1 construct: gene LOC116947134; full-length ORF cloned from adult female lamprey RPE (852 bp PCR product), 7-glycine tract at aa 160-166; pVITRO3, expressed in HEK293-F cells
# T1 sequence (A0AAJ7TIF3 1-274): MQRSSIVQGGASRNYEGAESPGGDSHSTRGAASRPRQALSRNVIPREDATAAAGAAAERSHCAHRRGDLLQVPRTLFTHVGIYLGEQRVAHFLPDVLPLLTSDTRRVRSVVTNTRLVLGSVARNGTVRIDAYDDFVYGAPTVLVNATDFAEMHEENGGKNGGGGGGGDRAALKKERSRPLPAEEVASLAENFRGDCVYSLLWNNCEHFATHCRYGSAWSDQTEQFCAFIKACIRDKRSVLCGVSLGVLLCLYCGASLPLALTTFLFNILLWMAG
# [1] = molecular target: T2, Ciona BCMOb (Ci-BCMO1; ci-BCO) (Ciona intestinalis, UniProt Q2PE72); assay: β-carotene loss in β-carotene-accumulating E. coli, reverse-phase HPLC; conditions: arabinose induction; no retinal detected
# T2 construct: expressed in carotenoid-accumulating E. coli
# T2 sequence (Q2PE72 1-524): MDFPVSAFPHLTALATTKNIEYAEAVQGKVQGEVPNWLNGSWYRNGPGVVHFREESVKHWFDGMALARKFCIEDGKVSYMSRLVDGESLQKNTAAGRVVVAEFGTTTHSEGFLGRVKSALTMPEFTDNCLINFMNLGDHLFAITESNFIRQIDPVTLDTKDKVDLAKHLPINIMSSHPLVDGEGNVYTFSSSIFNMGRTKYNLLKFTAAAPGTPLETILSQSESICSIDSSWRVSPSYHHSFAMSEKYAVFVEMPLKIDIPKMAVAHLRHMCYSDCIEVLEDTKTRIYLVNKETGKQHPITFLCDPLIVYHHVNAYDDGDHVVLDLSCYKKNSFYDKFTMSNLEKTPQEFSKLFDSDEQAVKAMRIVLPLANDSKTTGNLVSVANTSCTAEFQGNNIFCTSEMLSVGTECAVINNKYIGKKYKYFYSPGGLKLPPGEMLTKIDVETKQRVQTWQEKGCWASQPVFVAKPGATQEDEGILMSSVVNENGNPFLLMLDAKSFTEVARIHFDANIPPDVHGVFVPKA
# Ciona BCMOa (Ci-RPE65) [2] = molecular target: T3, Ciona BCMOa (Ci-RPE65) (Ciona intestinalis, UniProt Q2PE71); assay: as above; conditions: arabinose induction, 18 h; no retinal detected
# T3 construct: ORF from synthetic pUC57/ciBCMOa (Genscript), cloned in pBadTOPO, expressed in carotenoid-accumulating E. coli
# T3 sequence (Q2PE71 1-553): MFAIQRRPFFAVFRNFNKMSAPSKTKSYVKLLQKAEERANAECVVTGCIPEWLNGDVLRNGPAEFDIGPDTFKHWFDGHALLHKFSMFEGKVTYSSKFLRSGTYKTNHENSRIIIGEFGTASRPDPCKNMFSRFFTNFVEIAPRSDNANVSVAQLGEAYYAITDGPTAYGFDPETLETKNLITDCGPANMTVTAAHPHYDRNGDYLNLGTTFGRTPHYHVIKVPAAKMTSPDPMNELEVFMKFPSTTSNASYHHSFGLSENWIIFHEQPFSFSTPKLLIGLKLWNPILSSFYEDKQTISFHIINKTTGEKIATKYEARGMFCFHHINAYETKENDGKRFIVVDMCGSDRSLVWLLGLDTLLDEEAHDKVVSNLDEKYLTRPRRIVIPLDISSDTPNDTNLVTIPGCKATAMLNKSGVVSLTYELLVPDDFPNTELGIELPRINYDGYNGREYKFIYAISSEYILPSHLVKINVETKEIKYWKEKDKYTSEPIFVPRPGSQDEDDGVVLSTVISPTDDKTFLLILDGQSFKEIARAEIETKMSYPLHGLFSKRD
# Lamprey RPE65 = molecular target: T4, Lamprey RPE65 (Petromyzon marinus, UniProt L0ATZ0); assay: HEK293-F minimal visual cycle assay, normal-phase HPLC of saponified retinoids; conditions: co-expressed lamprey LRATb or bovine LRAT and bovine CRALBP; 2.5 µM all-trans retinol fed for 5 h; direct substrate is the retinyl ester formed in the cells
# T4 construct: pVITRO2 with bovine CRALBP, expressed in HEK293-F cells with LRAT
# T4 sequence (L0ATZ0 1-537): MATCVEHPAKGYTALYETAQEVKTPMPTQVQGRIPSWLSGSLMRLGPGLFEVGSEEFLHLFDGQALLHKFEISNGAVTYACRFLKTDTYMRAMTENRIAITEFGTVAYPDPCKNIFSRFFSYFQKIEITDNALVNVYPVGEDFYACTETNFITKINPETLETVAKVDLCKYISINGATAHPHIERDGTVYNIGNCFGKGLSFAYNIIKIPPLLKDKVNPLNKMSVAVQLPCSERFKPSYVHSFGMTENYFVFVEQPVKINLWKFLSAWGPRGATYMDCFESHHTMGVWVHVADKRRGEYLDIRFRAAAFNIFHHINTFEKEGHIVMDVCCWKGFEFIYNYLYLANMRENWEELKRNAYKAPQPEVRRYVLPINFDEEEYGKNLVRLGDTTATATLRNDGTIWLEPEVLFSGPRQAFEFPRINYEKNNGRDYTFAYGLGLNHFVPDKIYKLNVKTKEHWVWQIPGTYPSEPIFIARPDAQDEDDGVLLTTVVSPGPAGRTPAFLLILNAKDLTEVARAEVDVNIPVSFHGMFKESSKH
# Ciona BCMOa (Ci-RPE65) [3] = molecular target: T3, Ciona BCMOa (Ci-RPE65); assay: lycopene loss in lycopene-accumulating E. coli, reverse-phase HPLC; conditions: arabinose induction, 18 h; no retinal detected; data not shown
# [4] = molecular target: T2, Ciona BCMOb (Ci-BCMO1; ci-BCO); assay: as above; conditions: arabinose induction; no retinal detected; printed as β-carotene or lycopene
smiles,measurement,setting,value
CC1=C(/C=C/C(C)=C/C=C/C(C)=C/CO)C(C)(C)CCC1 [all-trans retinol],"retinol esterification in HEK293-F cells, HPLC, retinyl esters as % of total ret",Lamprey LRATb,Catalytic activity of Lamprey LRATb in HEK293F cells in the presence of specific DGAT1 inhibitor
CC1=C(/C=C/C(C)=C/C=C/C(C)=C/C=C/C=C(C)/C=C/C=C(C)/C=C/C2=C(C)CCCC2(C)C)C(C)(C)CCC1 [β-carotene],"β-carotene loss in β-carotene-accumulating E. coli, reverse-phase HPLC",[1],Ciona BCMOb (ci-BCO) also demonstrated significant carotenoid cleavage activity
same,"β-carotene loss in β-carotene-accumulating E. coli, reverse-phase HPLC",Ciona BCMOa (Ci-RPE65) [2],the amount of lycopene (data not shown) or β-carotene in induced cells decreased significantly
CC1=C(/C=C/C(C)=C/C=C\C(C)=C\CO)C(C)(C)CCC1 [11-cis retinol],"HEK293-F minimal visual cycle assay, normal-phase HPLC of saponified retinoids",Lamprey RPE65,Cells transfected with lamprey RPE65 and lamprey LRATb were also able to produce 11-cis retinol
CC(C)=CCC/C(C)=C/C=C/C(C)=C/C=C/C(C)=C/C=C/C=C(C)/C=C/C=C(C)/C=C/C=C(\C)CCC=C(C)C [lycopene],"lycopene loss in lycopene-accumulating E. coli, reverse-phase HPLC",Ciona BCMOa (Ci-RPE65) [3],the amount of lycopene (data not shown) or β-carotene in induced cells decreased significantly
same,"lycopene loss in lycopene-accumulating E. coli, reverse-phase HPLC",[4],Quantification of β-carotene or lycopene in induced cell culture transformed with Ciona BCMOb (ci-BCO)
